Results: US10130630B2, “BTK inhibitors” (MERCK SHARP & DOHME CORP., priority 2014, dated 2018)
Where two headings read alike, the source gives them in different places.

Legend:
[1] = biological target: T1, BTK enzyme (full-length BTK, hBTK) (Homo sapiens, UniProt Q06187); experiment: Btk enzyme activity assay (LANCE TR-FRET); type: biochemical; details: 50 pM hBTK, 25 μM ATP, 60 minute compound and enzyme incubation, read-out: BTK binding IC50
T1 construct: recombinant protein from baculovirus-transfected Sf9 cells: full-length BTK, 6HIS-tag cleaved; 6HIS (cleaved yes); made in house; host or cells: baculovirus-transfected Sf9 cells
Method: BTK enzymatic activity was determined with the LANCE (Lanthanide Chelate Excite) TR-FRET (Time-resolved fluorescence resonance energy transfer) assay. […] To each well of a black non-binding surface Corning 384-well microplate (Corning Catalog #3820), 5 nL of compound (2000 fold dilution in final assay volume of 10 μL) was dispensed, followed by the addition of 7.5 μL of 1× kinase buffer (50 mM Hepes 7.5, 10 mM MgCl2, 0.01% Brij-35, 1 mM EGTA, 0.05% BSA & 1 mM DTT) containing 5.09 pg/μL (66.67 pM) of BTK enzyme (recombinant protein from baculovirus-transfected Sf9 cells: full-length BTK, 6HIS-tag cleaved). Following a 60 minute compound and enzyme incubation, each reaction was initiated by the addition of 2.5 μL 1× kinase buffer containing 8 μM biotinylated “A5” peptide (Biotin-[…]-NH2) (SEQ.ID.NO.: 1), and 100 μM ATP. The final reaction in each well of 10 μL consists of 50 pM hBTK, 2 μM biotin-A5-peptide, and 25 μM ATP. Phosphorylation reactions were allowed to proceed for 120 minutes. Reactions were immediately quenched by the addition of 20 uL of 1× quench buffer (15 mM EDTA, 25 mM Hepes 7.3, and 0.1% Triton X-100) containing detection reagents (0.626 nM of LANCE-Eu-W1024-anti-phosphoTyrosine antibody, PerkinElmer and 86.8 nM of Streptavidin-conjugated Dylight 650, Dyomics/ThermoFisher Scientific). After 60 minutes incubation with detection reagents, reaction plates were read on a PerkinElmer EnVision plate reader using standard TR-FRET protocol. Briefly, excitation of donor molecules (Eu-chelate:anti-phospho-antibody) with a laser light source at 337 nm produces energy that can be transferred to Dylight-650 acceptor molecules if this donor:acceptor pair is within close proximity. Fluorescence intensity at both 665 nm (acceptor) and 615 nm (donor) are measured and a TR-FRET ratio calculated for each well (acceptor intensity/donor intensity). IC50 values were determined by 4 parameter robust fit of TR-FRET ratio values vs. (Log10) compound concentrations.
The following Table 2 provides specific IC50 values for all the examples. The IC50 values set forth below were determined according to Assay method described above.

[2] = tested on: adenosine uptake into HeLa cells; experiment: [3H]Adenosine uptake assay in HeLa cells; type: cell-based; details: 60 minutes uptake, read-out: ADU inhibition IC50 (adenosine uptake inhibition potency)
Method: Compounds were also screened in an adenosine uptake functional cellular assay using the protocol described below.
Adenosine uptake activity was determined by monitoring the accumulation of tritiated adenosine into HeLa cells (ATCC catalog # CCL-2) using a PMT-based radiometric detection instrument. In this assay, the potency (IC50) of each compound was determined from a ten point (1:3 serial dilution; final compound concentration range in assay from 10 μM to 0.032 nM) titration curve using the following outlined procedure. To each well of a 96-well CytoStar-T scintillating microplate (Perkin Elmer Catalog # RPNQ0163), 25 000 HeLa cells in 100 μL of growth medium comprising: Minimum Essential Media (Life Technologies Catalog # 11095-080)+10% (v/v) foetal bovine serum (FBS; Sigma Aldrich Catalog # F2442) was added. These cells were incubated overnight at 37° C. in a humidified atmosphere with 5% (v/v) CO2. After this time the growth medium was removed and replaced with 40 μL assay medium comprising: Hanks balanced salts solution (HBSS; Thermo Fisher Catalog # SH30268.01)+5% (v/v) FBS. Compound stock solutions in DMSO were diluted in assay medium to 2.5× final compound concentration maintaining a constant DMSO concentration of 0.25% (v/v). 40 μL of compound in assay medium was dispensed into individual wells of the Cytostar-T plates and the plates were incubated for 30 minutes under ambient laboratory conditions. Following this incubation, 20 μL of 500 nM [^3H]adenosine (American Radiolabeled Chemicals Inc. Catalog # ART0287) in assay medium was added and incubated for a further 60 minutes under ambient laboratory conditions. The amount of radiolabel accumulation was then determined using a Perkin Elmer Topcount NXT microplate reader. In brief, HeLa cells adhere to the bottom of the Cytostar-T plate, uptake of [^3H]adenosine into these cells brings the radiolabel into sufficient proximity to excite the scintillant in the base of the plates. These events are captured by single PMT, time-resolved coincidence counting. IC50 values were determined by 4 parameter robust fit of counts per second values vs. (Log10) compound concentrations.

T1 sequence (Q06187 whole entry): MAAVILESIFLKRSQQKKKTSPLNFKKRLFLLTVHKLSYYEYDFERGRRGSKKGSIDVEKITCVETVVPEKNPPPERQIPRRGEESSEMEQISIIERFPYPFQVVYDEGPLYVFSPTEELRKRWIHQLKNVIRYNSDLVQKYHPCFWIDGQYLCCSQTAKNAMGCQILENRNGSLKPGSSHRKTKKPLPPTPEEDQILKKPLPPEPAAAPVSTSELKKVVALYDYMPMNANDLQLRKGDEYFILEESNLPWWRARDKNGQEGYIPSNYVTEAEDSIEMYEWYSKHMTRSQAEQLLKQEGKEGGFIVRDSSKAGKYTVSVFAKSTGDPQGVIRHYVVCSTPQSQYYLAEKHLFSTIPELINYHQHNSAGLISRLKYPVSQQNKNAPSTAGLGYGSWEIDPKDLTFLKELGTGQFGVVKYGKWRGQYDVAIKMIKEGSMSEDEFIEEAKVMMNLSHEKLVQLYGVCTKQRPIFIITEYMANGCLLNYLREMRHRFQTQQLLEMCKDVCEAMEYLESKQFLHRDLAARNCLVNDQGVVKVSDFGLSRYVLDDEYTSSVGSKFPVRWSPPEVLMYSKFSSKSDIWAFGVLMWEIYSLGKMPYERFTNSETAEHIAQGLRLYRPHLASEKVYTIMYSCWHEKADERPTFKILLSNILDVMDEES

| SMILES | IC50 [1] [µM] | IC50 ([2]; Homo sapiens, HeLa) [µM] | IC50 [2] [µM] |
| --- | --- | --- | --- |
| CCOc1cc(C(=O)Nc2cc(C(F)(F)F)ccn2)ccc1-c1nc([C@H]2CN3C(=O)[C@H]4CCCN4C[C@@H]3CO2)n2ccnc(N)c12 [Compound 35, 4-{8-amino-3-[(3R,6aR,11aR)-6-oxooctahydro-1H,6H-pyrrolo [1′,2′:4,5]pyrazino[2,1-c][1,4]oxazin-3-yl]imidazo[1,5-a]pyrazin-1-yl}-3-ethoxy-N-[4-(trifluoromethyl)pyridin-2-yl] benzamide] | 0.00125 | 1.33 | – |
| CCOc1cc(C(=O)Nc2cc(C(F)(F)F)ccn2)ccc1-c1nc([C@H]2CN3C(=O)[C@@H]4CCCN4C[C@@H]3CO2)n2ccnc(N)c12 [Compound 36, 4-{8-amino-3-[(3R,6aS,11aR)-6-oxooctahydro-1H,6H-pyrrolo[1′,2′:4,5]pyrazino[2,1-c][1,4]oxazin-3-yl]imidazo[1,5-a]pyrazin-1-yl}-3-ethoxy-N-[4-(trifluoromethyl)pyridin-2-yl]benzamide] | 0.001 | 1.25 | – |
| CCOc1cc(C(=O)Nc2cc(C(F)(F)F)ccn2)ccc1-c1nc(C2CCC3N(C2)C(=O)CNC32CC2)n2ccnc(N)c12 (centres unmarked) [Compound 39, 4-[8-amino-3-(4′-oxohexahydro-2′H,6′H-spiro[cyclopropane-1,1′-pyrido[1,2-a]pyrazin]-7′-yl)imidazol[1,5-a]pyrazin-1-yl]-3-ethoxy-N-[4-(trifluoromethyl)pyridin-2-yl]benzamide] | 0.000322 | 1.35 | – |
| COc1cc(C(=O)Nc2cc(C(F)(F)F)ccn2)ccc1-c1nc([C@@H]2CC[C@H]3CNC4(CC4)C(=O)N3C2)n2ccnc(N)c12 [Compound 41, 4-{8-amino-3-[(7′R,9a′S)-4′-oxohexahydro-2′H-spiro[cyclopropane-1,3′-pyrido[1,2-a]pyrazin]-7′-yl]imidazo[1,5-a]pyrazin-1-yl}-3-methoxy-N-[4-(trifluoromethyl)pyridin-2-yl]benzamide] | 0.000252 | 1.34 | – |
| CCOc1cc(C(=O)Nc2cc(C(F)(F)F)ccn2)ccc1-c1nc(C2CCC3N(C2)C(=O)CNC32CC2)n2ccnc(N)c12 (centres unmarked) [Compound 43, 4-[8-amino-3-(4′-oxohexahydro-2′H,6′H-spiro[cyclopropane-1,1′-pyrido[1,2-a]pyrazin]-7′-yl)imidazo[1,5-a]pyrazin-1-yl]-3-ethoxy-N-[4-(trifluoromethyl)pyridin-2-yl]benzamide] | 0.00561 | – | 1.19 |
| CCOc1cc(C(=O)Nc2cc(C(F)(F)F)ccn2)ccc1-c1nc([C@@H]2CC[C@H]3CN(CC)C4(CC4)C(=O)N3C2)n2ccnc(N)c12 [Compound 44, 4-{8-amino-3-[(7′R,9a′S)-2′-ethyl-4′-oxohexahydro-2′H-spiro[cyclopropane-1,3′-pyrido[1,2-a]pyrazin]-7′-yl]imidazo[1,5-a]pyrazin-1-yl}-3-ethoxy-N-[4-(trifluoromethyl)pyridin-2-yl]benzamide] | 0.000249 | 0.785 | – |
| CCOc1cc(C(=O)Nc2cc(C(F)(F)F)ccn2)ccc1-c1nc([C@H]2CN3C(=O)C4(CC4)NC[C@@H]3CO2)n2ccnc(N)c12 [Compound 45, 4-{8-amino-3-[(3′R,9a′R)-6′-oxohexahydrospiro[cyclopropane-1,7′-pyrazino[2,1-c][1,4]oxazin]-3′-yl]imidazo[1,5-a]pyrazin-1-yl}-3-ethoxy-N-[4-(trifluoromethyl)pyridin-2-yl]benzamide] | 0.000241 | 1.58 | – |
| COc1cc(C(=O)Nc2cc(C(F)(F)F)ccn2)ccc1-c1nc([C@H]2CC[C@@H]3CC4(CC4)C(=O)N3C2)n2ccnc(N)c12 [Compound 47, 4-{8-amino-3-[(6′S,8a′R)-3′-oxohexahydrospiro[cyclopropane-1,2′-indolizin]-6′-yl]imidazo[1,5-a]pyrazin-1-yl}-3-methoxy-N-[4-(trifluoromethyl)pyridin-2-yl]benzamide] | 0.000528 | 0.524 | – |
| CCOc1cc(C(=O)Nc2cc(C(F)(F)F)ccn2)ccc1-c1nc([C@H]2CC[C@@H]3CC4(CC4)C(=O)N3C2)n2ccnc(N)c12 [Compound 48, 4-{8-amino-3-[(6′S,8a′R)-3′-oxohexahydrospiro[cyclopropane-1,2′-indolizin]-6′-yl]imidazo[1,5-a]pyrazin-1-yl}-3-ethoxy-N-[4-(trifluoromethyl)pyridin-2-yl]benzamide] | 0.00119 | 0.998 | – |

The next compounds have a lower IC50 [1] than those just listed; values first:

| IC50 [1] [µM] | IC50 ([2]; Homo sapiens, HeLa) [µM] | IC50 [2] [µM] | SMILES |
| --- | --- | --- | --- |
| 0.000186 | 0.375 | – | CCOc1cc(C(=O)Nc2cc(C#N)ccn2)cc(F)c1-c1nc(C2CCC3N(C2)C(=O)CC32CC2)n2c(Cl)cnc(N)c12 (centres unmarked) [Compound 37, 4-[8-amino-5-chloro-3-(3′-oxohexahydro-5′H-spiro[cyclopropane-1,1′-indolizin]-6′-yl)imidazo[1,5-a]pyrazin-1-yl]-N-(4-cyanopyridin-2-yl)-3-ethoxy-5-fluorobenzamide] |
| 0.000222 | 0.765 | – | CCOc1cc(C(=O)Nc2cc(C#N)ccn2)cc(F)c1-c1nc(C2CCC3N(C2)C(=O)CC32CC2)n2ccnc(N)c12 (centres unmarked) [Compound 38, 4-[8-amino-3-(3′-oxohexahydro-5′H-spiro[cyclopropane-1,1′-indolizin]-6′-yl)imidazo[1,5-a]pyrazin-1-yl]-N-(4-cyanopyridin-2-yl)-3-ethoxy-5-fluorobenzamide] |
| 0.000173 | 0.168 | – | Nc1nccn2c([C@@H]3CC[C@H]4CNC5(CC5)C(=O)N4C3)nc(-c3ccc(C(=O)Nc4cc(C(F)(F)F)ccn4)cc3)c12 [Compound 40, 4-{8-amino-3-[(7′R,9a′S)-4′-oxohexahydro-2′H-spiro[cyclopropane-1,3′-pyrido[1,2-a]pyrazin]-7′-yl]imidazo[1,5-a]pyrazin-1-yl}-N-[4-(trifluoromethyl)pyridin-2-yl]benzamide] |
| 0.000231 | – | 2.22 | CCOc1cc(C(=O)Nc2cc(C(F)(F)F)ccn2)ccc1-c1nc(C2CCC3N(C2)C(=O)CNC32CC2)n2ccnc(N)c12 (centres unmarked) [Compound 42, 4-[8-amino-3-(4′-oxohexahydro-2′H,6′H-spiro[cyclopropane-1,1′-pyrido[1,2-a]pyrazin]-7′-yl)imidazo[1,5-a]pyrazin-1-yl]-3-ethoxy-N-[4-(trifluoromethyl)pyridin-2-yl]benzamide] |
